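Assay format: 96-well plates, 48-hour exposure. The concentration for 50% growth inhibition is given as GI50. At the TGI there is no net growth.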
Assays:
Assay in all cases: inhibition of tumour cell growth, NCI panel, 48 h
786-0 renal = test system: 786-0 renal
A498 renal = test system: A498 renal
A549 NSCLC = test system: A549 NSCLC
ACHN renal = test system: ACHN renal
BT-549 breast = test system: BT-549 breast
CAKI-1 renal = test system: CAKI-1 renal
CCRF-CEM leukemia = test system: CCRF-CEM leukemia
COLO 205 colon = test system: COLO 205 colon
DU-145 prostate = test system: DU-145 prostate
EKVX NSCLC = test system: EKVX NSCLC
HCC-2998 colon = test system: HCC-2998 colon
HCT-116 colon = test system: HCT-116 colon
HCT-15 colon = test system: HCT-15 colon
HL-60(TB) leukemia = test system: HL-60(TB) leukemia
HOP-62 NSCLC = test system: HOP-62 NSCLC
HOP-92 NSCLC = test system: HOP-92 NSCLC
HS 578T breast = test system: HS 578T breast
HT29 colon = test system: HT29 colon
IGROV1 ovarian = test system: IGROV1 ovarian
K-562 leukemia = test system: K-562 leukemia
KM12 colon = test system: KM12 colon
LOX IMVI melanoma = test system: LOX IMVI melanoma
M14 melanoma = test system: M14 melanoma
MALME-3M melanoma = test system: MALME-3M melanoma
MCF7 breast = test system: MCF7 breast
MDA-MB-231 breast = test system: MDA-MB-231 breast
MDA-MB-435 = test system: MDA-MB-435
MDA-MB-468 breast = test system: MDA-MB-468 breast
MOLT-4 leukemia = test system: MOLT-4 leukemia
NCI-H226 lung = test system: NCI-H226 lung
NCI-H23 lung = test system: NCI-H23 lung
NCI-H460 lung = test system: NCI-H460 lung
NCI-H522 lung = test system: NCI-H522 lung
NCI/ADR-RES ovarian = test system: NCI/ADR-RES ovarian
OVCAR-3 ovarian = test system: OVCAR-3 ovarian
OVCAR-4 ovarian = test system: OVCAR-4 ovarian
OVCAR-5 ovarian = test system: OVCAR-5 ovarian
OVCAR-8 ovarian = test system: OVCAR-8 ovarian
PC-3 prostate = test system: PC-3 prostate
RPMI-8226 leukemia = test system: RPMI-8226 leukemia
RXF 393 renal = test system: RXF 393 renal
SF-268 CNS = test system: SF-268 CNS
SF-295 CNS = test system: SF-295 CNS
SF-539 CNS = test system: SF-539 CNS
SK-MEL-2 melanoma = test system: SK-MEL-2 melanoma
SK-MEL-28 melanoma = test system: SK-MEL-28 melanoma
SK-MEL-5 melanoma = test system: SK-MEL-5 melanoma
SK-OV-3 ovarian = test system: SK-OV-3 ovarian
SN12C renal = test system: SN12C renal
SNB-19 CNS = test system: SNB-19 CNS
SNB-75 CNS = test system: SNB-75 CNS
SR leukemia = test system: SR leukemia
SW-620 colon = test system: SW-620 colon
T-47D breast = test system: T-47D breast
TK-10 renal = test system: TK-10 renal
U251 CNS = test system: U251 CNS
UACC-257 melanoma = test system: UACC-257 melanoma
UACC-62 melanoma = test system: UACC-62 melanoma
UO-31 renal = test system: UO-31 renal

Compound: O=C(CNc1nc(-c2ccccc2)cs1)Nc1cccc(Cl)c1
- GI50 (786-0 renal): 13.1 µM
- TGI (786-0 renal): 38.3 µM
- GI50 (A498 renal): 11.5 µM
- TGI (A498 renal): 33.5 µM
- GI50 (A549 NSCLC): 9.22 µM
- TGI (A549 NSCLC): 62.4 µM
- GI50 (ACHN renal): 6.57 µM
- TGI (ACHN renal): 19.8 µM
- GI50 (BT-549 breast): 4.82 µM
- TGI (BT-549 breast): 19 µM
- GI50 (CAKI-1 renal): 3.13 µM
- TGI (CAKI-1 renal): 42.9 µM
- GI50 (CCRF-CEM leukemia): 3.76 µM
- TGI (CCRF-CEM leukemia): > 100 µM
- GI50 (COLO 205 colon): 15.6 µM
- TGI (COLO 205 colon): 36.5 µM
- GI50 (DU-145 prostate): 15.2 µM
- TGI (DU-145 prostate): 37.2 µM
- GI50 (EKVX NSCLC): 3.59 µM
- TGI (EKVX NSCLC): 15.3 µM
- GI50 (HCC-2998 colon): 11.2 µM
- TGI (HCC-2998 colon): 23.2 µM
- GI50 (HCT-116 colon): 4.99 µM
- TGI (HCT-116 colon): 34.1 µM
- GI50 (HCT-15 colon): 4.49 µM
- TGI (HCT-15 colon): 16.1 µM
- GI50 (HL-60(TB) leukemia): 3.53 µM
- TGI (HL-60(TB) leukemia): 23.1 µM
- GI50 (HOP-62 NSCLC): 12.6 µM
- TGI (HOP-62 NSCLC): 36 µM
- GI50 (HOP-92 NSCLC): 2.37 µM
- TGI (HOP-92 NSCLC): 15.1 µM
- GI50 (HS 578T breast): 7.94 µM
- TGI (HS 578T breast): > 100 µM
- GI50 (HT29 colon): 10.1 µM
- TGI (HT29 colon): 24 µM
- GI50 (IGROV1 ovarian): 5.27 µM
- TGI (IGROV1 ovarian): 21.5 µM
- GI50 (K-562 leukemia): 3.84 µM
- TGI (K-562 leukemia): 26 µM
- GI50 (KM12 colon): 6.33 µM
- TGI (KM12 colon): 22.5 µM
- GI50 (LOX IMVI melanoma): 3.31 µM
- TGI (LOX IMVI melanoma): 16.4 µM
- GI50 (M14 melanoma): 10.4 µM
- TGI (M14 melanoma): 42.3 µM
- GI50 (MALME-3M melanoma): 15 µM
- TGI (MALME-3M melanoma): 28.3 µM
- GI50 (MCF7 breast): 5.42 µM
- TGI (MCF7 breast): 18.3 µM
- GI50 (MDA-MB-231 breast): 4.03 µM
- TGI (MDA-MB-231 breast): 17.8 µM
- GI50 (MDA-MB-435): 12.5 µM
- TGI (MDA-MB-435): 33.5 µM
- GI50 (MDA-MB-468 breast): 4.01 µM
- TGI (MDA-MB-468 breast): 13.5 µM
- GI50 (MOLT-4 leukemia): 3.22 µM
- TGI (MOLT-4 leukemia): 15.9 µM
- GI50 (NCI-H226 lung): 10.1 µM
- TGI (NCI-H226 lung): 45.4 µM
- GI50 (NCI-H23 lung): 9.24 µM
- TGI (NCI-H23 lung): 22.8 µM
- GI50 (NCI-H460 lung): 10.1 µM
- TGI (NCI-H460 lung): 28.6 µM
- GI50 (NCI-H522 lung): 4.01 µM
- TGI (NCI-H522 lung): 16.1 µM
- GI50 (NCI/ADR-RES ovarian): 6.39 µM
- TGI (NCI/ADR-RES ovarian): 45.3 µM
- GI50 (OVCAR-3 ovarian): 7.14 µM
- TGI (OVCAR-3 ovarian): 21.5 µM
- GI50 (OVCAR-4 ovarian): 6.4 µM
- TGI (OVCAR-4 ovarian): 20.9 µM
- GI50 (OVCAR-5 ovarian): 13 µM
- TGI (OVCAR-5 ovarian): 25.7 µM
- GI50 (OVCAR-8 ovarian): 7.2 µM
- TGI (OVCAR-8 ovarian): 74.6 µM
- GI50 (PC-3 prostate): 2.86 µM
- TGI (PC-3 prostate): 37.6 µM
- GI50 (RPMI-8226 leukemia): 4.61 µM
- TGI (RPMI-8226 leukemia): > 100 µM
- GI50 (RXF 393 renal): 5.39 µM
- TGI (RXF 393 renal): 18.4 µM
- GI50 (SF-268 CNS): 7.45 µM
- TGI (SF-268 CNS): 52.3 µM
- GI50 (SF-295 CNS): 5.13 µM
- TGI (SF-295 CNS): 18.1 µM
- GI50 (SF-539 CNS): 11.2 µM
- TGI (SF-539 CNS): 23.3 µM
- GI50 (SK-MEL-2 melanoma): 11.8 µM
- TGI (SK-MEL-2 melanoma): 26 µM
- GI50 (SK-MEL-28 melanoma): 13 µM
- TGI (SK-MEL-28 melanoma): 25.9 µM
- GI50 (SK-MEL-5 melanoma): 7.04 µM
- TGI (SK-MEL-5 melanoma): 19.8 µM
- GI50 (SK-OV-3 ovarian): 14.1 µM
- TGI (SK-OV-3 ovarian): 44.9 µM
- GI50 (SN12C renal): 6.3 µM
- TGI (SN12C renal): 20.7 µM
- GI50 (SNB-19 CNS): 11 µM
- TGI (SNB-19 CNS): 28 µM
- GI50 (SNB-75 CNS): 3.22 µM
- TGI (SNB-75 CNS): 19.7 µM
- GI50 (SR leukemia): 3.94 µM
- TGI (SR leukemia): > 100 µM
- GI50 (SW-620 colon): 12.1 µM
- TGI (SW-620 colon): 30.3 µM
- GI50 (T-47D breast): 6.04 µM
- TGI (T-47D breast): 22.6 µM
- GI50 (TK-10 renal): 14.9 µM
- TGI (TK-10 renal): 29.7 µM
- GI50 (U251 CNS): 5.15 µM
- TGI (U251 CNS): 19.5 µM
- GI50 (UACC-257 melanoma): 13 µM
- TGI (UACC-257 melanoma): 26.9 µM
- GI50 (UACC-62 melanoma): 3.33 µM
- TGI (UACC-62 melanoma): 16.6 µM
- GI50 (UO-31 renal): 2.41 µM
- TGI (UO-31 renal): 14.8 µM
